Values of other authors as cited in article PMC1403760 (BMC Pharmacology, 2006).

Tested on: HEK cells
Parameters: method as in PMID 12238779
Details: in these (HEK) cells; read-out: EC50 of forskolin

C=C[C@@]1(C)CC(=O)[C@]2(O)[C@@]3(C)[C@@H](O)CCC(C)(C)[C@@H]3[C@H](O)[C@H](OC(C)=O)[C@@]2(C)O1 [forskolin]
EC50: 10 µM
